Measured values reported in article PMC7031696 (Cell chemical biology, 2019).
Like-named read-outs stand apart in the source and are kept apart here.

Tests used:
[1] = tested on: Plasmodium falciparum 3D7-A10 parasites; test: Stage specificity assay (8-h exposure of synchronized stages, IC50^8h); type: cell-based; settings: Plasmodium falciparum
[2] = tested on: asynchronous 3D7-A10 parasite cultures; test: Standard 72-h exposure asexual blood stage susceptibility assay (IC50^72h); type: cell-based, Plasmodium falciparum; settings: Plasmodium falciparum, 3D7, 72 h, read-out: Overall (72hr assay) Mean IC50 (IC50^72h)
[3] = tested on: 3D7-MR4 trophozoite parasite-infected RBCs; test: Metabolomic profiling (hydrophilic metabolite changes, UHPLC-MS); type: cell-based, Plasmodium falciparum

IC50 [2]: 243 nM
SMILES: COc1ccc(C2c3ccc4ccccc4c3Oc3ncn(CCCN(C)C)c(=N)c32)cc1 (centres unmarked) [MMV667491]
IC50 ([1]; 3D7, read-out: Early rings Mean IC50 (IC50^8h), 8-h exposure 0–8 hr, 3D7-A10, survival at 60 h): 2260 nM | IC50 ([1]; 3D7, read-out: Early trophozoites Mean IC50 (IC50^8h), 8-h exposure 16–24 hr, 3D7-A10, survival at 60 h): 521 nM | IC50 ([1]; 3D7, read-out: Late rings Mean IC50 (IC50^8h), 8-h exposure 8–16 hr, 3D7-A10, survival at 60 h): 1270 nM | IC50 ([1]; 3D7, read-out: Late trophozoites Mean IC50 (IC50^8h), 8-h exposure 24–32 hr, 3D7-A10, survival at 60 h): 731 nM | IC50 ([1]; 3D7, read-out: Schizonts Mean IC50 (IC50^8h), 8-h exposure 32–40 hr, 3D7-A10, survival at 60 h): 842 nM | peptide levels (hemoglobin catabolism signature) ([3]; 10 × IC50^72h, 2.5 hr, trophozoites): decreased peptide levels | Log2(fold changes) 3-phosphoglycerate ([3]; metabolite 3-phosphoglycerate, log2 fold change): 0.2589 | Log2(fold changes) 4-Pyridoxic acid ([3]; metabolite 4-Pyridoxic acid, log2 fold change): 0.1545 | Log2(fold changes) 4-aminobutyrate ([3]; metabolite 4-aminobutyrate, log2 fold change): -0.0143 | Log2(fold changes) 4-phosphopantetheine ([3]; metabolite 4-phosphopantetheine, log2 fold change): 0.0000 | Log2(fold changes) 4-phosphopantothenate ([3]; metabolite 4-phosphopantothenate, log2 fold change): -0.5959 | Log2(fold changes) 5-aminopentanoic acid ([3]; metabolite 5-aminopentanoic acid, log2 fold change): 0.0000 | Log2(fold changes) 5-methyl-THF ([3]; metabolite 5-methyl-THF, log2 fold change): 0.0000 | Log2(fold changes) 5-phosphoribosyl-1-pyrophosphate ([3]; metabolite 5-phosphoribosyl-1-pyrophosphate, log2 fold change): 0.0000 | Log2(fold changes) 6-phospho-D-gluconate ([3]; metabolite 6-phospho-D-gluconate, log2 fold change): -0.3071 | Log2(fold change) HVDD ([3]; metabolite HVDD): -3.1004 | Log2(fold change) Hydroxyisocaproic acid ([3]; metabolite Hydroxyisocaproic acid): 0.0000 | Log2(fold change) IDP ([3]; metabolite IDP): 0.0000 | Log2(fold change) IMP ([3]; metabolite IMP): -0.4029 | Log2(fold change) Inositol ([3]; metabolite Inositol): 0.0000 | Log2(fold change) Isopentyl-PP ([3]; metabolite Isopentyl-PP): -0.4741 | Log2(fold change) L-arginino-succinate ([3]; metabolite L-arginino-succinate): 1.0249 | Log2(fold change) LD ([3]; metabolite LD): 0.5039 | Log2(fold change) Myristoyl/tetradecanoyl-CoA ([3]; metabolite Myristoyl/tetradecanoyl-CoA): 0.0000 | Log2(fold change) N-Acetyl-L-alanine ([3]; metabolite N-Acetyl-L-alanine): -0.5066 | Log2(fold change) N-acetyl-L-ornithine ([3]; metabolite N-acetyl-L-ornithine): -0.0359 | Log2(fold change) N-acetyl-glucosamine-1/6-phosphate ([3]; metabolite N-acetyl-glucosamine-1/6-phosphate): -0.2210 | Log2(fold change) N-acetyl-glutamate ([3]; metabolite N-acetyl-glutamate): -0.3035 | Log2(fold change) N-acetyl-glutamine ([3]; metabolite N-acetyl-glutamine): 2.2691 | Log2(fold change) N-carbamoyl-L-aspartate ([3]; metabolite N-carbamoyl-L-aspartate): -0.9439 | Log2(fold change) NAD+ ([3]; metabolite NAD+): -0.1377 | Log2(fold change) NADH ([3]; metabolite NADH): 0.2776 | Log2(fold change) NADP+ ([3]; metabolite NADP+): 0.1452 | Log2(fold change) NADPH ([3]; metabolite NADPH): 0.1884 | Log2(fold change) O-acetyl-L-serine ([3]; metabolite O-acetyl-L-serine): -0.0049 | Log2(fold change) Octoluse 8/1P ([3]; metabolite Octoluse 8/1P): 0.3908 | Log2(fold change) Octoluse Bisphosphate ([3]; metabolite Octoluse Bisphosphate): 1.4853 | Log2(fold change) PD ([3]; metabolite PD): -2.5358 | Log2(fold change) PE ([3]; metabolite PE): -0.3826 | Log2(fold change) PEE ([3]; metabolite PEE): -0.0417 | Log2(fold change) PEEK ([3]; metabolite PEEK): 0.3987 | Log2(fold change) PVNF ([3]; metabolite PVNF): -3.7257 | Log2(fold change) Pyroglutamic acid ([3]; metabolite Pyroglutamic acid): -0.2992 | Log2(fold change) Pyrophosphate ([3]; metabolite Pyrophosphate): 0.0000 | Log2(fold change) Ribose-5-phosphate ([3]; metabolite Ribose-5-phosphate): -0.2620 | Log2(fold change) S-adenosyl-L-homocysteine ([3]; metabolite S-adenosyl-L-homocysteine): 0.0103 | Log2(fold change) S-adenosyl-L-methioninamine ([3]; metabolite S-adenosyl-L-methioninamine): -2.2715 | Log2(fold change) S-adenosyl-L-methionine ([3]; metabolite S-adenosyl-L-methionine): 0.0000 | Log2(fold change) S-methyl-5'-thioadenosine ([3]; metabolite S-methyl-5'-thioadenosine): 1.0471 | Log2(fold change) SD ([3]; metabolite SD): -1.2290 | Log2(fold change) SDL ([3]; metabolite SDL): 0.0000 | Log2(fold change) SID ([3]; metabolite SID): -0.4398 | Log2(fold change) Sedoheptulose bisphosphate ([3]; metabolite Sedoheptulose bisphosphate): 1.3696 | Log2(fold change) Thiamine pyrophosphate ([3]; metabolite Thiamine pyrophosphate): -0.0845 | Log2(fold changes) UDP-D-glucose ([3]; metabolite UDP-D-glucose, log2 fold change): 0.2535 | Log2(fold changes) UDP-D-glucuronate ([3]; metabolite UDP-D-glucuronate, log2 fold change): 0.0929 | Log2(fold changes) UDP-N-acetyl-glucosamine ([3]; metabolite UDP-N-acetyl-glucosamine, log2 fold change): -0.0110 | Log2(fold changes) UDP ([3]; metabolite UDP, log2 fold change): -0.5582 | Log2(fold changes) UMP ([3]; metabolite UMP, log2 fold change): -1.0091 | Log2(fold changes) UTP ([3]; metabolite UTP, log2 fold change): 0.0000 | Log2(fold change) hydroxyphenylpyruvate ([3]; metabolite hydroxyphenylpyruvate): 0.0000 | Log2(fold change) hydroxyproline/Aminolevulinate ([3]; metabolite hydroxyproline/Aminolevulinate): -0.0313 | Log2(fold change) hypoxanthine ([3]; metabolite hypoxanthine): 0.1226 | Log2(fold change) indole ([3]; metabolite indole): 0.0000 | Log2(fold change) inosine ([3]; metabolite inosine): 0.0977 | Log2(fold change) isoleucine ([3]; metabolite isoleucine): 0.0000 | Log2(fold change) lactate ([3]; metabolite lactate): -0.2958 | Log2(fold change) leucine ([3]; metabolite leucine): 0.0000 | Log2(fold change) lysine ([3]; metabolite lysine): -0.5255 | Log2(fold change) malate ([3]; metabolite malate): -0.2587 | Log2(fold change) maleic acid ([3]; metabolite maleic acid): -0.3091 | Log2(fold change) methionine ([3]; metabolite methionine): 0.3155 | Log2(fold change) myo-inositol ([3]; metabolite myo-inositol): -0.2765 | Log2(fold change) nicotinamide mononucleotide ([3]; metabolite nicotinamide mononucleotide): -0.3204 | Log2(fold change) nicotinate ([3]; metabolite nicotinate): -0.1938 | Log2(fold change) ornithine ([3]; metabolite ornithine): 0.1211 | Log2(fold change) orotate ([3]; metabolite orotate): -0.0965 | Log2(fold change) orotidine-5'-phosphate ([3]; metabolite orotidine-5'-phosphate): -2.6245 | Log2(fold change) oxaloacetate ([3]; metabolite oxaloacetate): -0.0776 | Log2(fold change) p-aminobenzoate ([3]; metabolite p-aminobenzoate): 0.0000 | Log2(fold change) p-hydroxybenzoate ([3]; metabolite p-hydroxybenzoate): 0.0000 | Log2(fold change) pantothenate ([3]; metabolite pantothenate): 0.1007 | Log2(fold change) phenylalanine ([3]; metabolite phenylalanine): -0.2555 | Log2(fold change) phenylpyruvate ([3]; metabolite phenylpyruvate): 0.0000 | Log2(fold change) phosphoenolpyruvate ([3]; metabolite phosphoenolpyruvate): 0.7161 | Log2(fold change) prephenate ([3]; metabolite prephenate): -0.9019 | Log2(fold change) proline ([3]; metabolite proline): -0.2246 | Log2(fold change) pyridoxine ([3]; metabolite pyridoxine): -0.1003 | Log2(fold change) pyruvate ([3]; metabolite pyruvate): -0.3220 | Log2(fold change) riboflavin ([3]; metabolite riboflavin): 0.6538 | Log2(fold change) ribose ([3]; metabolite ribose): 0.3285 | Log2(fold change) ribose-phosphate ([3]; metabolite ribose-phosphate): -0.4272 | Log2(fold change) ribulose-5-phosphate ([3]; metabolite ribulose-5-phosphate): -0.4317 | Log2(fold change) serine ([3]; metabolite serine): 0.1307 | Log2(fold change) sn-glycerol-3-phosphate ([3]; metabolite sn-glycerol-3-phosphate): 0.0813 | Log2(fold change) succinate/Methylmalonic acid ([3]; metabolite succinate/Methylmalonic acid): -0.0916 | Log2(fold change) succinyl-CoA/methylmalonyl-CoA ([3]; metabolite succinyl-CoA/methylmalonyl-CoA): 0.0000 | Log2(fold change) taurine ([3]; metabolite taurine): 0.1233 | Log2(fold change) thiamine ([3]; metabolite thiamine): -0.6378 | Log2(fold change) threonine/homoserine ([3]; metabolite threonine/homoserine): -0.0132 | Log2(fold change) thymidine ([3]; metabolite thymidine): 0.0000 | Log2(fold changes) thymine ([3]; metabolite thymine, log2 fold change): 0.0000 | Log2(fold changes) trehalose-6-Phosphate ([3]; metabolite trehalose-6-Phosphate, log2 fold change): 0.0000 | Log2(fold changes) tryptophan ([3]; metabolite tryptophan, log2 fold change): -0.6838 | Log2(fold changes) tyrosine ([3]; metabolite tyrosine, log2 fold change): 0.0515 | Log2(fold changes) uridine ([3]; metabolite uridine, log2 fold change): 0.0000
